Measurements taken from patent US7951359B2, “Compositions and methods for therapy or prevention of chemotherapy-induced neuropathy” (Merck Serono SA, priority 2004, dated 2011).
Values belong to the molecule of their own block, whether it stands above or below them.

How the values were obtained:
[1] = test system: vincristine induced neuropathy; test: Hot plate test in vincristine-treated rats; assay type: in vivo, rat
Protocol: (§1) The rat was placed inside a glass cylinder of 17 cm height and 21 cm diameter on a heating-plate maintained at 52° C. (Medite OTS 40, Microm, Francheville, Rhône, France). The animal behavior was observed, particularly the licking of a foot and the adjusted leap. The latency before licking a foot or before jumping to escape the heat (adjusted leap) was recorded. The time needed to feel the thermal pain is related to the thermal sensitivity and tends to increase when thermal sensitivity is altered.

[2] = test system: vincristine induced neuropathy; test: Walking test (motor coordination) in vincristine-treated rats; assay type: in vivo, rat; settings: vincristine alone; after 2 and 3 weeks
Protocol: The motor coordination was assessed using walking test, which consists at measuring the time taken by a rat placed at one extremity of a 100 cm-long horizontal wooden rod of 5.5 cm diameter, 40 cm above the table, to cover a distance of 1 m on this rod. Three tests (maximum duration: 60 s each) were performed, and the mean value was calculated and retained as characteristic value. If the animal fell down, it was scored with a maximum of 60 s.

[3] = test system: vincristine induced neuropathy; test: Hindpaw skin biopsy, density of dermal nerve fibers in vincristine-treated rats; assay type: in vivo, rat; settings: vincristine intoxication
Protocol: A 5-10 mm diameter area of skin was punch-biopsied from the hindpaw. Skin samples were immediately fixed overnight in paraformaldehyde at 4° C., incubated (overnight) in 30% sucrose in 0.1 M PBS for cryoprotection, embedded in OCT and frozen at −80° C. until cryocut. 50 μm-thick cryosections were then cut vertical to the skin surface with a cryostat. Free-floating sections were incubated for 7 days in a bath of rabbit anti-protein gene product 9.5 (1:10000; Ultraclone, Isle of Man, UK) at 4° C. The sections were then processed to reveal immunoreactivity according to the ABC peroxidase method. Briefly, they were incubated in for 1 hr with biotinylated anti-goat antibody (1:200), then 30 min in the avidin biotinylated complex at room temperature. Peroxidase activity was visualized using DAB system. Sections were then counterstained with eosin or hematoxylin. Sections were dehydrated, cleared with bioclear and mounted on eukitt. The number of dermal nerves of 3 microscope fields was counted manually under 40 magnification view.

[4] = test system: vincristine induced neuropathy; test: Electromyography (EMG) in vincristine-treated rats; assay type: in vivo, rat
Protocol: In parallel to behavioral tests, electrophysiological test as described in Example 17, were carried out to evaluate fiber/nerve function in vincristine-administered rats vis-à-vis rats co-administrated with IL-6.
(§2) Electrophysiological recordings were performed using a Neuromatic 2000M electromyograph (EMG) (Dantec, Les Ulis, France). Rats were anaesthetized by IP injection of 60 mg/kg ketamine chlorhydrate (Imalgene 500®, Rhône Merieux, Lyon, France). The normal body temperature was maintained around […] with a heating lamp and verified using a contact thermometer (Quick, Bioblock Scientific, Illkirch, France) placed on the tail surface.
(§3) Compound muscle action potential (CMAP) of M wave signal (or electrically evoked muscle potential) was recorded in the gastrocnemius muscle after stimulation of the sciatic nerve. M wave reflects the current developed during the action potential of muscle fibers. A reference electrode and an active needle were placed in the hind paw. A ground needle was inserted on the lower back of the rat. Sciatic nerve was stimulated with a single 0.2 ms pulse at supramaximal intensity. The […] of the motor wave was recorded and expressed in ms.
(§4) Sensitive nerve conduction velocity (SNCV) was also recorded. The tail skin electrodes were placed as follows: a reference needle inserted at the base of the tail and an anode needle placed 30 mm away from the reference needle toward the extremity of the tail. A ground needle electrode was inserted between the anode and reference needles. The caudal nerve was stimulated with a series of 20 pulses (for 0.2 ms) at an intensity of 12.8 mA. The velocity was expressed in m/s.
(§5) H-wave reflex was recorded in the hind footpad muscle after stimulation of the sciatic nerve. A reference electrode and a ground needle were placed on the lower back of the rat. The sciatic nerve was stimulated with a single 0.2 ms pulse at supramaximal intensity. The amplitude (mV) of H wave and the proportion of animal lacking H wave response were the parameters studied.

[5] = test system: vincristine induced neuropathy; test: Morphometric analysis of sciatic nerve in vincristine-treated rats; assay type: in vivo, rat
Protocol: Histomorphometric analyses were carried out as described in Example 18 at the completion of the experiments, to explore morphologic changes occurring in fiber and axon diameter and myelin thickness in rats treated with vincristine and in rats co-administrated with IL-6.
With vincristine, morphometric analysis was performed 2 week after the end of vincristine administration on 3 animals per group. The animals were anesthetized by IP injection of 100 mg/kg Imalgène 500®. A 5 mm segment of sciatic nerve was excised, fixed overnight with 4% glutaraldehyde (Sigma, L'Isle d'Abeau-Chesnes, France) in phosphate buffered saline (PBS) (pH=7.4) and maintained in 30% sucrose and stored at 4° C. until further processing. At the time of use, the nerve sample was post-fixed in 1% osmium tetroxide (Sigma, L'Isle d'Abeau-Chesnes, France) in PBS for 2 h, dehydrated in serial alcohol solution, and embedded in Epon. Embedded tissues were then placed at 70° C. during 3 days to allow polymerization of the tissue wax. Cross sections of 1.5 μm thick were performed and they were stained with a 1% toluidine blue solution (Sigma, L'Isle d'Abeau-Chesnes, France) for 2 min, dehydrated and mounted on Eukitt. Twelve sections per sample were examined using an optical microscope (Nikon, Tokyo, Japan) and analyzed using, a semi-automated digital image analysis software (Biocom, France). The fiber diameter (a), axon diameter (b), and myelin thickness (c) were measured as illustrated below.

[6] = test system: lung (SK-MES1) tumor cell line; test: Cell survival by acid phosphatase activity assay, SK-MES1; assay type: cell-based, human; settings: 4 days; for decrease in cell survival versus control: cisplatin (2.5 μM), carboplatin (25 μM)
Protocol: (§6) The human lung (SK-MES1) and breast (MCF7) tumor cell lines were obtained from ATCC. The cell lines were maintained in Dulbecco's MEM medium (Gibco; Invitrogen, Cergy-Pontoise, France, ref. 41965039) supplemented with 1% antibiotic/antimicotic mixture solution (Gibco, ref. 15240062), and 10% heat-inactivated foetal bovine serum (Gibco, ref. F7524, batch 92K3387). The cells were amplified in Nunc tissue culture flasks (80 cm2) in a humidified incubator at 37° C. with 5% CO2 in 95% air. Cultures were sub-cultured twice a week.
(§7) The enzymatic activity has been proven to be proportional to the number of living cells (Ueda et al.; 1994).
(§8) Three days after the last replication, tumor cells were seeded in 96 well-plates (TPP, VWR International, Fontenay-sous-bois, France) at a density of 1,500 cells (MCF7 line) or 3,000 cells (SK-MES1 line) per well, in a total volume of 100 μl/well and incubated overnight in a humidified incubator at 37° C. with 5% CO2 in 95% air. […] IL-6 (in buffer solution at 1.8 mg/ml, PH: 7) was immediately added at concentrations of 0, 3, 12, 50 or 200 ng/ml.
(§9) Four days after the initiation of the intoxication, acid phosphatase activity (Example 21) in each cell culture was assessed.
(§10) After removal of the culture medium, cells were rinsed with phosphate-buffered saline (PBS, Gibco, ref. 14190-094) and further incubated for 90 min at 37° C. in 100 μl of buffer containing 0.1 mol/l sodium acetate (pH 5.5), 0.1% Triton X100 (Sigma, ref. T9284) and 10 mmol/l p-nitrophenyl phosphate (Sigma, ref. N9389). Reaction was stopped by addition of 10 μl of 1 mol/l sodium hydroxide aqueous solution (Laboratoire de Produit Chimiques de la Robertsau, Strasbourg, France; ref. 28.252.293). Absorbance of the colored solution was measured at 405 nm in a microplate reader (Labsystems Multiskan Bichromatic, EST-LAB, Strasbourg, France).
(§11) The results were expressed as percentage of optical density of the control cell cultures. The heights of the columns represent mean±SEM of percentages of 5-6 wells from two independent cultures.

[7] = test system: breast (MCF7) tumor cell line; test: Cell survival by acid phosphatase activity assay, MCF7; assay type: cell-based, human; settings: 4 days; for decrease in cell survival versus control: cisplatin (2.5 μM), carboplatin (25 μM)
Protocol: as §6, §7, §8, §9, §10, §11

[8] = Body weight in vincristine induced neuropathy rat model; settings: vincristine 0.15 mg/kg, vehicle-treated
Protocol: The experiments were carried out employing 10 weeks-old female Dark Agouti rats (Janvier, Le Genest-St-Isle, France). […] 4-MC is a standard compound with an established neuroprotective action, used at the dose of 10 μg/kg (n=10).
Vincristine (Tocris, Illkirch, France) was administered by an injection of a vincristine solution from day 0 to 5, from day 8 to 12 and from day 15 to 16 at a dose of 0.15 mg/kg. A vincristine solution (0.03 mg/ml) was prepared in saline.
IL-6 was diluted in saline containing 0.02% BSA and was administered via subcutanuous route every day from the first day of vincristine administration until the end of the experiment.

taxol induced neuropathy = test: Electrophysiological monitoring in taxol induced neuropathy, co-administration; assay type: in vivo, rat
Protocol: The aim of the following experiment was to investigate the potential neuroprotective effect of IL6 in an additional model of chemotherapeutic induced neuropathy mediated by taxol. The potential preventive effect of IL-6 co-administration was tested. Administration of IL-6 was initiated together with taxol administration. The doses of IL-6 of 3 and 10 μg/kg were administered daily or in the case 10 μg/kg also only 3 times per week.
Females 10 weeks old aged Dark Agouti rats were used, 12 animals per group were included as following
The taxol was diluted in a solution of cremophor/ethanol/dextrose 5% and administered twice a week during 4 weeks.
4-MC and test compounds treatment was initiated the first day of intoxication and was stopped at the end of the study.
The study was performed on 8 weeks (1 week for the baseline, 4 weeks for the taxol intoxication and 3 weeks of recovery).
Control, taxol, and taxol-IL-6 co-administered group of rats at the indicated doses were subjected to electrophysiological monitoring to assess the effect of IL-6 in taxol-induced loss of fiber/nerve function.
as §4
H-wave reflex was recorded in the hind footpad muscle after stimulation of the sciatic nerve. […] The sciatic nerve was stimulated with a single 0.2 ms pulse at supramaximal intensity. The amplitude (mV) of H wave and the proportion of animal lacking H wave response were the parameters studied.

[9] = test system: cisplatin induced neuropathy; assay type: in vivo, rat
Protocol: The drug was diluted in 0.9% sterile aqueous solution of sodium chloride.
4-MC was diluted in 0.9% sterile aqueous solution of sodium chloride and injected daily via IP route from day 23 to the end of the experiment.
Electrophysiological tests described in Example 17, were carried out in parallel to the behavioral tests (described in the preceding example) in cisplatin-established neuropathy model. The objective was to assess the therapeutic effect of IL-6 in cisplatin-induced loss of fiber/nerve function.
as §2, §4, §5

[10] = test system: cisplatin induced neuropathy; test: Morphometric analysis, therapeutic treatment of established cisplatin neuropathy; assay type: in vivo, rat; settings: 4-MC 10 μg/kg IP
Description: The number of degenerated and non-degenerated fibers on the entire surface of each nerve section was counted by an operator in a blinded fashion. All the results (except the data expressed as ratio value) were reported as percentage of changes in reference to the control value.

[11] = test system: cisplatin induced neuropathy; test: Morphometric analysis of sciatic nerve in cisplatin-treated rats, co-administration; assay type: in vivo, rat; settings: 4-MC 10 μg/kg IP daily
Protocol: The total number of fibers per nerve section was obtained from 3 randomized slices of each sample. The counting was performed on 2 selected fields per slice.

[12] = test system: cisplatin induced neuropathy; test: Hot plate test, therapeutic treatment of established cisplatin neuropathy; assay type: in vivo, rat; settings: 4-MC 10 μg/kg IP daily from day 23; after 2 weeks; p≦0.05
[13] = test system: cisplatin induced neuropathy; assay type: in vivo, rat; settings: 4-MC 10 μg/kg IP daily
Protocol: Electrophysiological monitoring in cisplatin-induced neuropathy model was carried out as described in Example 17. The objective was to assess the effect of co-administration with IL-6 in cisplatin-induced loss of fiber/nerve function.
as §2, §3, §4, §5

[14] = test system: cisplatin induced neuropathy; test: Hot plate test in cisplatin-treated rats, co-administration; assay type: in vivo, rat; settings: 4-MC 10 μg/kg IP daily; 3 weeks
Protocol: as §1

hot plate first reaction to heat versus control ([1]; vincristine alone, significant at 3 and 5 weeks): delayed first reaction to heat
walking test performance versus non-treated controls [2]: significantly reduced
loss of M wave amplitude versus control ([4]; vincristine alone, 2 weeks): about 20%
loss of SNCV ([4]; vincristine alone, 5 weeks after treatment initiation): about 10 m/s
axon diameter ([5]; vincristine alone): significantly decreases
myelin thickness versus control ([5]; vincristine alone): significantly reduced
percentage of degenerated fibers versus control ([5]; vincristine alone): two times higher
sciatic nerve fiber diameter versus control ([5]; vincristine alone): significant decrease in fiber diameter
Compound: CC[C@]1(O)C[C@H]2CN(CCc3c([nH]c4ccccc34)[C@@](C(=O)OC)(c3cc4c(cc3OC)N(C=O)[C@H]3[C@@](O)(C(=O)OC)[C@H](OC(C)=O)[C@]5(CC)C=CCN6CC[C@]43[C@@H]65)C2)C1 [vincristine]
decrease in the density of epidermal nerve fibers [3]: more than 50%
percentage of myelinated fibers versus control ([5]; vincristine alone): less than that in the control non-treated group
decrease in cell survival versus control [6]: about 50%
decrease in cell survival versus control [7]: about 50%
body weight lost at completion of vincristine administration [8]: about 10%

SNCV versus non-treated control (taxol induced neuropathy; taxol alone, 3 weeks): significantly slower
H wave latency (taxol induced neuropathy; taxol alone, 3 weeks after taxol treatment): significant increase
H wave latency (taxol induced neuropathy; taxol alone, 6 weeks after taxol treatment): dramatically increased
Compound: CC(=O)O[C@H]1C(=O)[C@@]2(C)[C@H]([C@H](OC(=O)c3ccccc3)[C@]3(O)C[C@H](OC(=O)[C@H](O)[C@@H](NC(=O)c4ccccc4)c4ccccc4)C(C)=C1C3(C)C)[C@]1(OC(C)=O)CO[C@@H]1C[C@@H]2O [taxol]
decrease of cell survival ([6]; taxol, 'this concentration' (30 nM)): about 70%
decrease in cell survival ([7]; taxol 30 nM): about 55%

Compound: Cc1ccc(O)c(O)c1 [4-MC, 4-methylcatechol]
cisplatin-induced H wave loss in amplitude ([9]; 4-MC 10 μg/kg IP daily from day 23): reversed the cisplatin-induced H wave loss in amplitude
SNCV in cisplatin-treated animals ([9]; 4-MC 10 μg/kg IP, significant only 2 weeks after treatment initiation): appeared to improve SNCV
prevention of vincristine-induced nociception loss (hot plate) ([1]; 4-MC 10 μg/kg IP daily): did not appear to have any major preventive effect
cisplatin-induced myelin sheath thinning [10]: did not interfere with cisplatin-induced myelin sheath thinning
proportion of degenerated fibers ([10]; p>0.05): slight but not significant reduction
cisplatin-induced decrease in fiber or axon diameter [11]: protected against the decrease in cisplatin-induced fiber diameter or axon
loss of myelin wall by cisplatin [11]: significant protection against loss of myelin wall
time of the first reaction to heat [12]: Reduction of the time of the first reaction to heat
protection against loss of M wave amplitude ([4]; 4-MC 10 μg/kg IP daily with vincristine): protect the loss of M wave amplitude only transiently
prevention of H-wave amplitude reduction by taxol (taxol induced neuropathy; 4-MC 10 μg/kg daily i.p.): not significant
H wave latency under taxol (taxol induced neuropathy; 4-MC 10 μg/kg daily i.p., weeks 3, 5, 6 and 7): improvement in H wave latency
decrease in axon diameter by vincristine ([5]; 4-MC 10 μg/kg IP daily): significantly reduced/prevented the decrease in axon diameter
percentage of degenerated fibers in vincristine treated rats ([5]; 4-MC 10 μg/kg IP daily): decreased the percentage of degenerated fibers
vincristine-induced fiber shrinkage ([5]; 4-MC 10 μg/kg IP daily): protected
loss of H wave induced by cisplatin [13]: only a delayed and transient effect
decrease in SNCV by cisplatin ([13]; only after 5 weeks): transiently prevented the decrease in SNCV
first reaction time versus cisplatin alone [14]: slight but not significant decrease

Compound: N.N.O=C([O-])C1(C(=O)[O-])CCC1.[Pt+2] [carboplatin]
decrease in cell survival versus control [6]: about 50%
decrease in cell survival versus control [7]: about 50%
